ChEMBL document CHEMBL1201862, “PubChem BioAssay data set” (2004)
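Values below derive from 48-hour exposures of cells grown in 96-well plates, with endpoints linearly interpolated between the two concentrations bracketing the appropriate inhibition level. GI50: concentration for 50% inhibition of growth.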 Active and inactive are the calls of the source. No stated cut-off is given here; in the data, active = GI50 up to about 1.1 µM and inactive = higher.

Experiments:
Assay in all cases: inhibition of tumour cell growth, NCI panel, 48 h
A498 = system: A498
A549 = system: A549
ACHN = system: ACHN
CCRF-CEM = system: CCRF-CEM
EKVX = system: EKVX
HCT-15 = system: HCT-15
HL-60 = system: HL-60
HT-29 = system: HT-29
KM12 = system: KM12
LOX IMVI = system: LOX IMVI
OVCAR-3 = system: OVCAR-3
OVCAR-4 = system: OVCAR-4
OVCAR-8 = system: OVCAR-8
RPMI-8226 = system: RPMI-8226
SK-MEL-28 = system: SK-MEL-28
SK-MEL-5 = system: SK-MEL-5
SK-OV-3 = system: SK-OV-3
TK-10 = system: TK-10
U-251 = system: U-251
UACC-257 = system: UACC-257

SMILES | GI50 (A498) | GI50 (A549) | GI50 (ACHN) | GI50 (CCRF-CEM) | GI50 (EKVX) | GI50 (HCT-15) [µM] | GI50 (HL-60) | GI50 (HT-29) | GI50 (KM12) | GI50 (LOX IMVI) | GI50 (OVCAR-3) | GI50 (OVCAR-4) | GI50 (OVCAR-8) | GI50 (RPMI-8226) | GI50 (SK-MEL-28) | GI50 (SK-MEL-5) | GI50 (SK-OV-3) | GI50 (TK-10) | GI50 (U-251) | GI50 (UACC-257)
O=C(O)c1ccc(NS(=O)(=O)Cc2ccccc2)cc1 | > 100 µM (inactive) | > 100 µM (inactive) | > 100 µM (inactive) | > 100 µM (inactive) | > 100 µM (inactive) | > 100 | > 100 µM (inactive) | > 100 µM (inactive) | > 100 µM (inactive) | > 100 µM (inactive) | > 100 µM (inactive) | > 100 µM (inactive) | > 100 µM (inactive) | > 100 µM (inactive) | > 100 µM (inactive) | > 100 µM (inactive) | > 100 µM (inactive) | > 100 µM (inactive) | > 100 µM (inactive) | > 100 µM (inactive)
CC1C(=O)N(c2ccccc2)NC12CCCc1ccccc12 (stereo not given) | > 100 µM (inactive) | > 100 µM (inactive) | > 100 µM (inactive) | > 100 µM (inactive) | > 100 µM (inactive) | > 100 | > 100 µM (inactive) | > 100 µM (inactive) | > 100 µM (inactive) | > 100 µM (inactive) | > 100 µM (inactive) | > 100 µM (inactive) | > 100 µM (inactive) | > 100 µM (inactive) | > 100 µM (inactive) | > 100 µM (inactive) | > 100 µM (inactive) | > 100 µM (inactive) | > 100 µM (inactive) | > 100 µM (inactive)
